Data taken from US11629129B2, “Microbiocidal picolinamide derivatives” (SYNGENTA PARTICIPATIONS AG, priority 2018, dated 2023).

Experiments:
[1] = test system: Glomerella lagenarium (Colletotrichum lagenarium); assay: Glomerella lagenarium (Colletotrichum lagenarium)/Liquid Culture (Anthracnose); format: cell-based; details: Colletotrichum orbiculare; 200 ppm in the formulation; liquid culture, growth inhibition photometrically 3 to 4 days after application; compared to untreated control; read-out: disease control
Description: (§1) Glomerella lagenarium (Colletotrichum lagenarium)/Liquid Culture (Anthracnose) Conidia of the fungus from cryogenic storage are directly mixed into nutrient broth (PDB potato dextrose broth). After placing a (DMSO) solution of test compound into a microtiter plate (96-well format), the nutrient broth containing the fungal spores is added. The test plates are incubated at 24° C. and the inhibition of growth is measured photometrically 3 to 4 days after application.

[2] = test system: Puccinia recondita f. sp. tritici; assay: Puccinia recondita f. sp. tritici/Wheat/Leaf Disc Preventative (Brown Rust); format: in vivo; details: foliar, 200 ppm in the formulation, wheat leaf segments cv. Kanzler, inoculated 1 day after application, assessed 7-9 days after application, compared to untreated, read-out: disease control
Description: Puccinia recondita f. sp. tritici/Wheat/Leaf Disc Preventative (Brown Rust) Wheat leaf segments cv. Kanzler are placed on agar in multiwell plates (24-well format) and sprayed with the formulated test compound diluted in water. The leaf disks are inoculated with a spore suspension of the fungus 1 day after application. The inoculated leaf segments are incubated at 19° C. and 75% rh under a light regime of 12 h light/12 h darkness in a climate cabinet and the activity of a compound is assessed as percent disease control compared to untreated when an appropriate level of disease damage appears in untreated check leaf segments (7-9 days after application).

[3] = test system: Mycosphaerella arachidis (Cercospora arachidicola); assay: Mycosphaerella arachidis (Cercospora arachidicola)/Liquid Culture (Early Leaf Spot); format: cell-based; details: 200 ppm in the formulation, liquid culture, growth inhibition photometrically 4-5 days after application, compared to untreated control, read-out: disease control
Description: as §1, with “Mycosphaerella arachidis (Cercospora arachidicola)/Liquid” for “Glomerella lagenarium (Colletotrichum lagenarium)/Liquid”, “(Early Leaf Spot)” for “(Anthracnose)”, “determined” for “measured”, “4-5” for “3 to 4”

[4] = test system: Mycosphaerella graminicola (Septoria tritici); assay: Mycosphaerella graminicola (Septoria tritici)/Liquid Culture (Septoria Blotch); format: cell-based; details: Zymoseptoria tritici; 200 ppm in the formulation; liquid culture, growth inhibition photometrically 4 to 5 days after application; compared to untreated control; read-out: disease control
Description: (§2) Mycosphaerella graminicola (Septoria tritici)/Liquid Culture (Septoria Blotch) Conidia of the fungus from cryogenic storage are directly mixed into nutrient broth (PDB potato dextrose broth). After placing a (DMSO) solution of test compound into a microtiter plate (96-well format), the nutrient broth containing the fungal spores is added. The test plates are incubated at 24° C. and the inhibition of growth is determined photometrically 4 to 5 days after application.

[5] = test system: Monographella nivalis (Microdochium nivale); assay: Monographella nivalis (Microdochium nivale)/Liquid Culture (Foot Rot Cereals); format: cell-based; details: 200 ppm in the formulation, liquid culture, growth inhibition photometrically 4-5 days after application, compared to untreated control, read-out: disease control
Description: as §2, with “Monographella nivalis (Microdochium nivale)/Liquid” for “Mycosphaerella graminicola (Septoria tritici)/Liquid”, “(Foot Rot Cereals)” for “(Septoria Blotch)”, “4-5” for “4 to 5”

[6] = test system: Botryotinia fuckeliana (Botrvtis cinerea); assay: Botryotinia fuckeliana (Botrvtis cinerea)/Liquid Culture (Gray Mould); format: cell-based; details: Botrytis cinerea; 200 ppm in the formulation; liquid culture, growth inhibition photometrically 3-4 days after application; compared to untreated control; read-out: disease control
Description: as §2, with “Botryotinia fuckeliana (Botrvtis cinerea)/Liquid” for “Mycosphaerella graminicola (Septoria tritici)/Liquid”, “(Gray Mould)” for “(Septoria Blotch)”, “(Vogels” for “(PDB potato dextrose”, “3-4” for “4 to 5”

[7] = test system: Phaeosphaeria nodorum (Septoria nodorum); assay: Phaeosphaeria nodorum (Septoria nodorum)/Wheat/Leaf Disc Preventative (Glume Blotch); format: in vivo; details: Parastagonospora nodorum, foliar; 200 ppm in the formulation; wheat leaf segments cv. Kanzler, inoculated 2 days after application, assessed 5-7 days after application; compared to untreated; read-out: disease control
Description: Phaeosphaeria nodorum (Septoria nodorum)/Wheat/Leaf Disc Preventative (Glume Blotch) Wheat leaf segments cv. Kanzler are placed on agar in a multiwell plate (24-well format) and sprayed with the formulated test compound diluted in water. The leaf disks are inoculated with a spore suspension of the fungus 2 days after application. The inoculated test leaf disks are incubated at 20° C. and 75% rh under a light regime of 12 h light/12 h darkness in a climate cabinet and the activity of a compound is assessed as percent disease control compared to untreated when an appropriate level of disease damage appears in untreated check leaf disks (5-7 days after application).

Compound	melting point [°C]	inhibition of growth at 200 ppm [1] [%]	pest or weed control at 200 ppm [2] [%]	inhibition of growth at 200 ppm [3] [%]	inhibition of growth at 200 ppm [4] [%]	inhibition of growth at 200 ppm [5] [%]	inhibition of growth at 200 ppm [6] [%]	pest or weed control at 200 ppm [7] [%]
COc1ccnc(C(=O)N[C@@H](C)C(=O)O[C@@H](C)c2ccc(-c3ccc(Cl)cn3)cc2)c1O [I.aa.001, [(1S)-1-[4-(5-chloro-2-pyridyl)phenyl]ethyl] (2S)-2-[(3-hydroxy-4-methoxy-pyridine-2-carbonyl)amino] propanoate]	144 to 145	≥ 80	≥ 80	≥ 80	≥ 80	≥ 80	–	–
COc1ccnc(C(=O)N[C@@H](C)C(=O)O[C@@H](C)c2ccc(-c3cccc(C)c3C)cc2)c1O [I.m.001, [(1S)-1-[4-(2,3-dimethylphenyl)phenyl]ethyl] (2S)-2-[(3-hydroxy-4-methoxy-pyridine-2-carbonyl)amino] propanoate]	–	≥ 80	≥ 80	≥ 80	≥ 80	≥ 80	≥ 80	≥ 80
COc1ccnc(C(=O)N[C@@H](C)C(=O)O[C@@H](C)c2ccc(-c3ccc(Cl)cc3C)cc2)c1O [I.n.001, [(1S)-1-[4-(4-chloro-2-methyl-phenyl)phenyl]ethyl] (2S)-2-[(3-hydroxy-4-methoxy-pyridine-2-carbonyl)amino] propanoate]	–	≥ 80	≥ 80	≥ 80	≥ 80	≥ 80	≥ 80	≥ 80
COc1ccnc(C(=O)N[C@@H](C)C(=O)O[C@@H](C)c2ccc(-c3ccc(Br)cc3)cc2)c1O [I.v.001, [(1S)-1-[4-(4-bromophenyl)phenyl]ethyl] (2S)-2-[(3-hydroxy-4-methoxy-pyridine-2-carbonyl)amino] propanoate]	–	≥ 80	≥ 80	≥ 80	≥ 80	≥ 80	≥ 80	≥ 80
